IC50 data for 27 compounds are collected here from US20250051327A1, “MALT-1 MODULATORS” (EXSCIENTIA AI LIMITED, priority 2020, published 2025).

Recombinant human MALT-1 (amino acids 340-824), sequence (Q9UDY8 340-824): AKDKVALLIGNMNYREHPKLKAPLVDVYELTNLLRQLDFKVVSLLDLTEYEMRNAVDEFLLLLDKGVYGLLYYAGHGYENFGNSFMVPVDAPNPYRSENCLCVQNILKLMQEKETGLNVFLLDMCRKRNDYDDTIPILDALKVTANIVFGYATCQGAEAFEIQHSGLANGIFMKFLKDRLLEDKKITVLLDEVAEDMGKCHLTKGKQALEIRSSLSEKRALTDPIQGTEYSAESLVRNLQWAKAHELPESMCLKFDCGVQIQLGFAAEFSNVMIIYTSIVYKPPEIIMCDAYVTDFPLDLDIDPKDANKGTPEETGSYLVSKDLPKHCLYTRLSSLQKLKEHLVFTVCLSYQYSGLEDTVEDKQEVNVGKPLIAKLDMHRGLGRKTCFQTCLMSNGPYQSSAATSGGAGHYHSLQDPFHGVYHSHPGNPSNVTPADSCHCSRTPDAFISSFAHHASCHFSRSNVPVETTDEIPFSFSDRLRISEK

The assay deals with Recombinant human MALT-1 (amino acids 340-824) (Homo sapiens (Human), UniProt Q9UDY8). Description: MALT-1 inhibition assay (fluorogenic substrate Ac-LRSR-Rh110-DP). In kind it is biochemical. The note with it: recombinant human MALT-1, substrate Ac-LRSR-Rh110-DP. On the procedure:
MALT-1 paracaspase activity was measured using the fluorogenic substrate Ac-LRSR-Rh110-DP (purchased from Biosantan GmbH). […] The reaction was initiated by addition of substrate. Final concentrations of MALT-1 and substrate were 3 nM and 10 μM respectively. Reactions were incubated in the dark for 60 minutes at 25° C. […] Percent inhibition values were calculated from relative fluorescence units at different doses and fitted to a 4-parameter logistic curve to determine IC50 values (see Table 1).
Broadly, the IC50 is the midpoint of a concentration-inhibition curve. Turning to `COc1ccc2ncc(Nc3ccc([C@H](N(C)C(=O)C4CCS(=O)(=O)CC4)C(F)(F)F)cc3)c(C(=O)N3CCC3)c2n1` [CPD0074046, N-[(1S)-1-[4-[[4-(azetidine-1-carbonyl)-6-methoxy-1,5-naphthyridin-3-yl]amino]phenyl]-2,2,2-trifluoro-ethyl]-N-methyl-1,1-dioxo-thiane-4-carboxamide], the half-maximal inhibitory concentration (IC50) worked out at 494 nM.

As for `CN(C(=O)[C@H]1C[C@@H](O)C1)[C@@H](c1ccc(N2CCCc3c2cnc2cc(Cl)nn32)cc1)C(F)(F)F` [CPD0074538], the 50% inhibitory concentration (IC50) is 57 nM.

Consider `COc1ccc2ncc(Nc3ccc([C@H](N(C)C(=O)C4CCS(=O)(=O)CC4)C(F)(F)F)cc3)c(COC3CC3)c2n1` [CPD0074048], for which the IC50 came out at 163 nM.

Regarding `COc1ccc2ncc(Nc3ccc([C@@H](N(C)C(=O)[C@H]4CC[S@@](=N)(=O)CC4)C(F)(F)F)cc3)c([C@@H](C)OC)c2n1` (stereo in doubt) [CPD0077188, (1 rel-r,4rel-r)-1-imino-N-methyl-1-oxo-N-[(1R)-2,2,2-trifluoro-1-[4-({6-methoxy-4-[(1 rel-R)-1-methoxyethyl]-1,5-naphthyridin-3-yl}amino)phenyl]ethyl]-1λ^6-thiane-4-carboxamide], the IC50 came to 255 nM.

As to `CO[C@@H](C)c1c(Nc2ccc([C@H](N(C)C(=O)[C@H]3CCC(=O)N3)C(F)(F)F)cc2)cnn2cc(Cl)nc12` [CPD0082469, (2R)-N-[(1S)-1-[4-[[2-chloro-8-[(1 S)-1-methoxyethyl]imidazo[1,2-b]pyridazin-7-yl]amino]phenyl]-2,2,2-trifluoro-ethyl]-N-methyl-5-oxo-pyrrolidine-2-carboxamide], the half-maximal inhibitory concentration (IC50) stood at 45 nM.

Turning to `COc1ccc2ncc(Nc3ccc([C@H](N(C)C(=O)C4CCS(=O)(=O)CC4)C(F)(F)F)cc3)c([C@H](C)N)c2n1` (relative stereo) [CPD0084307, N-[(1 S)-1-[4-[[4-[(1rel S)-1-aminoethyl]-6-methoxy-1,5-naphthyridin-3-yl]amino]phenyl]-2,2,2-trifluoroo-ethyl]-N-methyl-1,1-dioxo-thiane-4-carboxamide], the half-inhibitory concentration (IC50) was found to be 124 nM.

As to `CN(C(=O)[C@@H]1CCN(C(=O)C2(O)CC2)C1)[C@@H](c1ccc(N2CCCc3c2cnc2cc(Cl)nn32)cc1)C(F)(F)F` [CPD0073978, (3rel-R)-N-[(1S)-1-[4-(4-chloro-2,3,7,10-tetrazatricyclo[7.4.0.0^2,6]trideca-1(9),3,5,7-tetraen-10-yl)phenyl]-2,2,2-trifluoro-ethyl]-1-(1-hydroxycyclopropanecarbonyl)-N-methyl-pyrrolidine-3-carboxamide], the IC50 was found to be 54 nM.

Take `CO[C@@H](C)c1c(Nc2ccc([C@H](N(C)C(=O)[C@H]3CC[S@@](=N)(=O)CC3)C(F)(F)F)cc2)cnn2cc(Cl)nc12` (relative stereo) [CPD0082474, (1rel-s,4rel-s) N-[(1 S)-1-[4-[[2-chloro-8-[(1S)-1-methoxyethyl]imidazo[1,2-b]pyridazin-7-yl]amino]phenyl]-2,2,2-trifluoro-ethyl]-1-imino-N-methyl-1-oxo-thiane-4-carboxamide]: the half-maximal inhibitory concentration (IC50) worked out at 50 nM.

Consider `CN(C(=O)[C@@H]1CNC(=O)C1)[C@H](c1ccc(N2CCCc3c2cnc2cc(Cl)nn32)cc1)C(F)(F)F` (stereo in doubt) [CPD0077245, (3 rel-S)—N-[(1R)-1-[4-(4-chloro-2,3,7,10-tetrazatricyclo[7.4.0.0^2,6]trideca-1(9),3,5,7-tetraen-10-yl)phenyl]-2,2,2-trifluoro-ethyl]-N-methyl-5-oxo-pyrrolidine-3-carboxamide], for which the half-maximal inhibitory concentration (IC50) is 355 nM.

For the compound `CN(C(=O)[C@H]1CCN(C(=O)C2(O)CC2)C1)[C@@H](c1ccc(N2CCCc3c2cnc2cc(Cl)nn32)cc1)C(F)(F)F` (relative stereo) [CPD0073979, (3rel-S)-N-[(1S)-1-[4-(4-chloro-2,3,7,10-tetrazatricyclo[7.4.0.0^2,6]trideca-1(9),3,5,7-tetraen-10-yl)phenyl]-2,2,2-trifluoro-ethyl]-1-(1-hydroxycyclopropanecarbonyl)-N-methyl-pyrrolidine-3-carboxamide], the IC50 came to 75 nM.

As for `CC(=O)N1CCC(C(=O)N(C)[C@@H](c2ccc(N3CCCc4c3cnc3cc(F)nn43)cc2)C(F)(F)F)CC1` [CPD0074050, 1-acetyl-N-methyl-N-[(1S)-2,2,2-trifluoro-1-(4-{4-fluoro-2,3,7,10-tetraazatricyclo[7.4.0.0^2,6]trideca-1(9),3,5,7-tetraen-10-yl}phenyl)ethyl]piperidine-4-carboxamide], the half-inhibitory concentration (IC50) amounted to 85 nM.

`CN(C(=O)[C@H](O)C1CCS(=O)(=O)CC1)[C@@H](c1ccc(N2CCCc3c2cnc2cc(Cl)nn32)cc1)C(F)(F)F` (relative stereo) [CPD0073972, (2rel-R)—N-[(1S)-1-(4-{4-chloro-2,3,7,10-tetraazatricyclo[7.4.0.0^2,6]trideca-1(9),3,5,7-tetraen-10-yl}phenyl)-2,2,2-trifluoroethyl]-2-(1,1-dioxo-1λ^e-thian-4-yl)-2-hydroxy-N-methylacetamide]: the IC50 worked out at 109 nM.

As for `COc1ccc2ncc(Nc3ccc([C@H](N(C)C(=O)C4CCN(C(C)=O)CC4)C(F)(F)F)cc3)c([C@@H]3CCOC3)c2n1` [CPD0082480], the IC50 stood at 77 nM.

In the case of `COc1ccc2ncc(Nc3ccc([C@H](N(C)C(=O)C4CCN(C(=O)CO)CC4)C(F)(F)F)cc3)c([C@@H]3CCOC3)c2n1` [CPD0082482], the IC50 came to 72 nM.

Take `COc1ccc2ncc(Nc3ccc([C@H](N(C)C(=O)C4CCS(=O)(=O)CC4)C(F)(F)F)cc3)c([C@@H](C)O)c2n1` (relative stereo) [CPD0084256, N-methyl-1,1-dioxo-N-[(1S)-2,2,2-trifluoro-1-[4-[[4-[(1rel R)-1-hydroxyethyl]-6-methoxy-1,5-naphthyridin-3-yl]amino]phenyl]ethyl]thiane-4-carboxamide]: the IC50 was 38 nM.

Consider `CN(C(=O)[C@H]1CC(=O)N1)[C@@H](c1ccc(N2CCCc3c2cnc2cc(Cl)nn32)cc1)C(F)(F)F` [CPD0075869, (2R)-N-[(1S)-1-[4-(4-chloro-2,3,7,10-tetrazatricyclo[7.4.0.0^2,6]trideca-1(9),3,5,7-tetraen-10-yl)phenyl]-2,2,2-trifluoro-ethyl]-N-methyl-4-oxo-azetidine-2-carboxamide], for which the IC50 is 75 nM.

With “N-[(1S)-1-[4-[[2-chloro-8-[(1S)-1-methoxyethyl]imidazo[1,2-b]pyridazin-7-yl]amino]phenyl]-2,2,2-trifluoro-ethyl]-N-methyl-1,1-dioxo-thiane-4-carboxamide [CPD0084508]”, the IC50 worked out at 182 nM.

On to `CN(C(=O)[C@@H]1CCN(C(=O)CO)C1)[C@@H](c1ccc(N2CCCc3c2cnc2cc(F)nn32)cc1)C(F)(F)F` [CPD0075879], for which the concentration for half-maximal inhibition (IC50) amounted to 154 nM.

Consider `COc1ccc2ncc(Nc3ccc([C@H](N(C)C(=O)C4CCN(C(=O)CO)CC4)C(F)(F)F)cc3)c([C@H]3CCOC3)c2n1` [CPD0082481], for which the half-maximal inhibitory concentration (IC50) amounted to 73 nM.

Turning to `CN(C(=O)[C@@H]1CNC(=O)O1)[C@@H](c1ccc(N2CCCc3c2cnc2cc(Cl)nn32)cc1)C(F)(F)F` (single isomer, unassigned) [CPD0075573], the half-inhibitory concentration (IC50) was 197 nM.

On to `C[C@@H]1CCc2c(cnc3cc(Cl)nn23)N1c1ccc([C@H](N(C)C(=O)[C@H]2CC[S@@](=N)(=O)CC2)C(F)(F)F)cc1` (relative stereo) [CPD0074552, (1rel s 4rel s) N-[(1S)-1-[4-[(11-rel R)-4-chloro-11-methyl-2,3,7,10-tetrazatricyclo[7.4.0.0^2,6]trideca-1(9),3,5,7-tetraen-10-yl]phenyl]-2,2,2-trifluoro-ethyl]-1-imino-N-methyl-1-oxo-thiane-4-carboxamide], for which the concentration for half-maximal inhibition (IC50) came to 78 nM.

For the compound `CN(C(=O)[C@H]1CCN(C(=O)CO)C1)[C@@H](c1ccc(N2CCCc3c2cnc2cc(F)nn32)cc1)C(F)(F)F` [CPD0075878], the half-inhibitory concentration (IC50) is 111 nM.

Take `C[C@H]1CCc2c(cnc3cc(Cl)nn23)N1c1ccc([C@H](N(C)C(=O)[C@H]2CC[S@@](=N)(=O)CC2)C(F)(F)F)cc1` (relative stereo) [CPD0074565, (1rel s 4rel s) N-[(1S)-1-[4-[(11-rel S)-4-chloro-11-methyl-2,3,7,10-tetrazatricyclo[7.4.0.0^2,6]trideca-1(9),3,5,7-tetraen-10-yl]phenyl]-2,2,2-trifluoro-ethyl]-1-imino-N-methyl-1-oxo-thiane-4-carboxamide]: the IC50 was 377 nM.

`C[C@H]1CCc2c(cnc3cc(Cl)nn23)N1c1ccc([C@H](N(C)C(=O)[C@H]2CC[S@](=N)(=O)CC2)C(F)(F)F)cc1` (relative stereo) [CPD0074564, (1rel r 4rel r) N-[(1S)-1-[4-[(11-rel S)-4-chloro-11-methyl-2,3,7,10-tetrazatricyclo[7.4.0.0^2,6]trideca-1(9),3,5,7-tetraen-10-yl]phenyl]-2,2,2-trifluoro-ethyl]-1-imino-N-methyl-1-oxo-thiane-4-carboxamide]: the IC50 is 248 nM.

For `COc1ccc2ncc(Nc3ccc([C@H](N(C)C(=O)C4CCS(=O)(=O)CC4)C(F)(F)F)cc3)c(C3(F)COC3)c2n1` [CPD0076413, N-methyl-1,1-dioxo-N-[(1S)-2,2,2-trifluoro-1-[4-[[4-(3-fluorooxetan-3-yl)-6-methoxy-1,5-naphthyridin-3-yl]amino]phenyl]ethyl]thiane-4-carboxamide], the half-maximal inhibitory concentration (IC50) came out at 109 nM.

With `CN1C[C@H](C(=O)N(C)[C@@H](c2ccc(N3CCCc4c3cnc3cc(Cl)nn43)cc2)C(F)(F)F)NC1=O` (relative stereo) [CPD0075577], the IC50 worked out at 42 nM.

As for `C[C@@H]1CCc2c(cnc3cc(Cl)nn23)N1c1ccc([C@H](N(C)C(=O)[C@H]2CC[S@](=N)(=O)CC2)C(F)(F)F)cc1` (relative stereo) [CPD0074551, (1rel r 4rel r) N-[(1S)-1-[4-[(11-rel R)-4-chloro-11-methyl-2,3,7,10-tetrazatricyclo[7.4.0.0^2,6]trideca-1(9),3,5,7-tetraen-10-yl]phenyl]-2,2,2-trifluoro-ethyl]-1-imino-N-methyl-1-oxo-thiane-4-carboxamide], the IC50 amounted to 57 nM.
